Values of other authors in US11234935B2, “Method of inducing satiety” (PERORA GMBH, priority 2015, dated 2022).

Conditions: rat feeding study; independent from intake

true digestibility of stearic acid from tristearin: 0.15 g/g
Structure (SMILES): CCCCCCCCCCCCCCCCCC(=O)OCC(COC(=O)CCCCCCCCCCCCCCCCC)OC(=O)CCCCCCCCCCCCCCCCC [tristearin]
